Source: patent publication US12433903B2 (priority 2021, dated 2025)

How the values were obtained:
[1] = system: cryopreserved hepatocytes; experiment: Hepatocyte stability and metabolite profiling, minipig; format: in vitro ADME; conditions: minipig hepatocyte samples, 40 and 120 minute
Method: The objective of this study was to investigate the stability of the test compound, CBG, in human, rat, dog, mouse, monkey and minipig cryopreserved hepatocytes. Follow-on metabolite profiling was performed.
CBG was incubated up to 2 hr with cryopreserved hepatocytes. Cryopreserved hepatocytes in suspension were added to test compound in supplemented media following pre-incubation to initiate the reaction and the reactions were stopped by organic solvent at the appropriate time points. The termination plates were centrifuged and sample supernatants were analysed using Cyprotex generic LC MS/MS conditions to generate intrinsic clearance values for CBG. Two control compounds for each species were included in the assay and if the values for these compounds were not within the specified limits the results were rejected and the experiment repeated.
Following the hepatocyte stability assay the samples were 59 tilized for metabolite profiling using suitable high-resolution LC-MS/MS conditions. The 40 and 60 minute human samples, 20 and 120 minute rat samples, 10 and 20 minute dog and monkey samples, 20 and 60 minute mouse samples, and 40 and 120 minute minipig samples were compared against the 0 minute control sample to establish which and how many metabolites were formed. […]
The areas and percentages reported for the parent and metabolites were calculated using the XIC data. […]

[2] = system: p-cMyc(S62), cMyc, p-AKT(S473), AKT, p-ERK(T202/Y204), ERK in SW620, HCT15, HCT116 cells; experiment: Target engagement by Western blot in colon cancer cell lines; format: cell-based; conditions: HCT 116 cells; 10-80 μM, 3 hours; with a dose effect
Method: For Western blot, the compounds were tested at 4 concentrations for 3 hours on 3 colon cancer cell lines. The compounds, concentrations, colon cancer cell line panel, and antibodies panel tested are the following: • CBG: 0 μM, 10 μM, 20 μM, 40 μM, and 80 μM. • Compound 1: 0 μM, 10 μM, 20 μM, 40 μM, and 80 μM. • Compound 2: 0 μM, 10 μM, 20 μM, 40 μM, and 80 μM. • Colon cancer cell line panel: SW620, HCT15, HCT116 • Antibodies panel: p-cMYC(S62), cMyc, p-AKT(S473), AKT, p-ERK(T202/Y204), ERK Methods
Evaluation of target engagement was performed to determine the expression of specific marker protein expression and underlying signaling pathways with Western blot.
Western blot. Whole cell extracts were prepared by incubating cell pellets in IP lysis buffer supplemented with protease and phosphatase inhibitors (Roche). Isolated protein was quantified by Pierce BCA Protein assay (ThermoFisher). Equal quantities of protein were separated by 4-15% SDS-PAGE electrophoresis gels and transferred onto nitrocellulose membranes. Membranes was blocked with 5% nonfat milk in Tris-buffered saline-Tween buffer. […]

CCCCCc1cc(O)c(C/C=C(\C)CCC=C(C)C)c(O)c1 [CBG, cannabigerol]
metabolites observed (number) [1]: four

CCCCCc1cc(O)c(C/C=C(\C)CCC=C(C)C)c(OC)c1 [Compound 1, (E)-2-(3,7-dimethylocta-2,6-dien-1-yl)-3-methoxy-5-pentylphenol]
pAKT(S473) (Western blot) [2]: down-regulated
